Test results published in ChEMBL document CHEMBL5465560, “Selectivity Literature for EUbOPEN Chemogenomic Library” (2024).
Each block holds one compound with its values, some of them ahead of it.

Legend:
[1] = target: Vascular endothelial growth factor receptor 3 (Homo sapiens, UniProt P35916); assay: Selectivity interaction (Kinase panel (Z-LYTE Assay)) EUB0001632a FLT4; conditions: at 10 µM
[2] = target: T1, Dual specificity mitogen-activated protein kinase kinase 4 (Homo sapiens) (UniProt P45985); assay: Selectivity interaction (LanthaScreen Eu Kinase Binding Assay) EUB0001632a MAP2K4; conditions: at 10 µM
T1 sequence (whole entry): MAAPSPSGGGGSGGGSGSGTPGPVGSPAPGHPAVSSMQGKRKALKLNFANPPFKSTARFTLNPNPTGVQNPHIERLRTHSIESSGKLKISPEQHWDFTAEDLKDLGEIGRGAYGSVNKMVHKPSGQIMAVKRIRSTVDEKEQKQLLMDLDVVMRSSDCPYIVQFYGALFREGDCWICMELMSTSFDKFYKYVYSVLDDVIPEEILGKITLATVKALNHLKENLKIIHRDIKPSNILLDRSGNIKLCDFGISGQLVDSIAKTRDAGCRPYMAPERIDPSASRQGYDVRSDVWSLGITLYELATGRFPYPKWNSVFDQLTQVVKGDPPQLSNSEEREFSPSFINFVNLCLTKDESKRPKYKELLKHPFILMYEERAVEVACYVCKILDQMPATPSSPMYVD

[3] = target: T2, Protein kinase C epsilon type (Homo sapiens) (UniProt Q02156); assay: Selectivity interaction (KinomeScan (DiscoverX)) EUB0000666a PRKCE; conditions: at 10 µM
T2 sequence (whole entry): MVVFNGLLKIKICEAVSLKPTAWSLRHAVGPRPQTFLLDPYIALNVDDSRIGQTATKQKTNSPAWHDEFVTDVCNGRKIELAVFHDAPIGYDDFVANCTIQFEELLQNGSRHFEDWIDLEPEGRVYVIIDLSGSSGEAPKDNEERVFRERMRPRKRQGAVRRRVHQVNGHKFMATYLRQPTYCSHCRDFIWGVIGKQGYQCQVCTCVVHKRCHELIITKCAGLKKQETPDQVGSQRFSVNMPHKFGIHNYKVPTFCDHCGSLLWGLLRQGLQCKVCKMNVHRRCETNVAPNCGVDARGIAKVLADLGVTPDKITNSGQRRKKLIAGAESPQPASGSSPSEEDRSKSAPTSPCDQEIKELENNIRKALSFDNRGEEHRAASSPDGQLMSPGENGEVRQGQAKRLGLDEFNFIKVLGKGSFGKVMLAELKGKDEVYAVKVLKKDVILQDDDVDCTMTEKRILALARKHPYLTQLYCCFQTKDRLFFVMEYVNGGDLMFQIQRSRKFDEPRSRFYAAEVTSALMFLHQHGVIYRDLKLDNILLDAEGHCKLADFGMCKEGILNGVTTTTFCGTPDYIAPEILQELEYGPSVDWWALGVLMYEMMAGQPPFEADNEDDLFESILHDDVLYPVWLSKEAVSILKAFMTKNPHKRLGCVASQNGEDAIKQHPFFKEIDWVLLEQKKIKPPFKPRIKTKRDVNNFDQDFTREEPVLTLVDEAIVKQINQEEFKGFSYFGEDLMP

Aurora kinase B = Aurora kinase B (Homo sapiens, UniProt Q96GD4); assay: Selectivity interaction (Enzymatic assay) EUB0001199aCl AURKB
Aurora kinase B, sequence (Q96GD4 whole entry, canonical isoform): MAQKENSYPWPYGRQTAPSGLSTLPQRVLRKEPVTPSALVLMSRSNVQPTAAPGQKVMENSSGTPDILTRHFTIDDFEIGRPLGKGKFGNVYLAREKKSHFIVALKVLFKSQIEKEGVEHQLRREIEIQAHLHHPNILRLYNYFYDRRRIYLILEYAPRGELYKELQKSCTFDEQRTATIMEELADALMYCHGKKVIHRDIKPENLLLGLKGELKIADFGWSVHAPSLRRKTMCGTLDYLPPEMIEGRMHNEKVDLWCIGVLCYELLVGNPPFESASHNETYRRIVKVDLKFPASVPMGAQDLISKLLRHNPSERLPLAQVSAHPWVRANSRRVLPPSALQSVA

[4] = target: Phosphatidylinositol 4,5-bisphosphate 3-kinase catalytic subunit gamma isoform (Homo sapiens) (UniProt P48736); assay: Selectivity interaction (KinomeScan (DiscoverX)) EUB0000607a PIK3CG; conditions: at 10 µM
Phosphatidylinositol 4,5-bisphosphate 3-kinase catalytic subunit gamma isoform (Homo sapiens), sequence (P48736 whole entry, looked up, canonical isoform): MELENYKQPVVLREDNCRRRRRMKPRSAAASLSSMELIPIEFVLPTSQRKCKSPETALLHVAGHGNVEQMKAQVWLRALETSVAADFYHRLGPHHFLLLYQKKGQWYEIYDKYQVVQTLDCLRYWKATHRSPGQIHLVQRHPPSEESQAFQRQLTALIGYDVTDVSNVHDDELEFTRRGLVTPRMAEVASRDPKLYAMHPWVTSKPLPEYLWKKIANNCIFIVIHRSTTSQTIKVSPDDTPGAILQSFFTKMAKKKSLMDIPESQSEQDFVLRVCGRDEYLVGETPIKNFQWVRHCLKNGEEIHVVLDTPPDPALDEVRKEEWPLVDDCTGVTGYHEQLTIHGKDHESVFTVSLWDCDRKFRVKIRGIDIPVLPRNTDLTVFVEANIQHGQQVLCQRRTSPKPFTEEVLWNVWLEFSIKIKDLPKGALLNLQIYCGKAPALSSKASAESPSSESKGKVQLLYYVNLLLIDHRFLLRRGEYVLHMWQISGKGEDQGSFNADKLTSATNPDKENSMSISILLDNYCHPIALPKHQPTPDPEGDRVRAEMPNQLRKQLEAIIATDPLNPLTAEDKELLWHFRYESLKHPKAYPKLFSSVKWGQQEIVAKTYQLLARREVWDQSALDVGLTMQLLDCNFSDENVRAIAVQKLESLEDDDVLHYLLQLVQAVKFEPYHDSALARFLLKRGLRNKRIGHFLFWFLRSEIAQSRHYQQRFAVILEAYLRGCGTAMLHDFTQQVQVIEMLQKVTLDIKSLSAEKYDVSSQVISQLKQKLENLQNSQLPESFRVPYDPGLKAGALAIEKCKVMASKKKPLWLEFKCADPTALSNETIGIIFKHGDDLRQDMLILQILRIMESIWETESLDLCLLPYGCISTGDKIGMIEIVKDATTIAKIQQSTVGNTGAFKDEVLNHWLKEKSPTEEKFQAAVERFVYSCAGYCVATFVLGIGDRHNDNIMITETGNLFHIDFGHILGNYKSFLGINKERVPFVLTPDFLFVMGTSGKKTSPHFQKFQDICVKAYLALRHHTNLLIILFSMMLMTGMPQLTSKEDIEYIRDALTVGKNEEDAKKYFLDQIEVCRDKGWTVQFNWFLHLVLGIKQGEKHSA

[5] = target: Mitogen-activated protein kinase kinase kinase 20 (Homo sapiens) (UniProt Q9NYL2); conditions: at 10 µM
Mitogen-activated protein kinase kinase kinase 20 (Homo sapiens), sequence (Q9NYL2 2-800 limits assumed): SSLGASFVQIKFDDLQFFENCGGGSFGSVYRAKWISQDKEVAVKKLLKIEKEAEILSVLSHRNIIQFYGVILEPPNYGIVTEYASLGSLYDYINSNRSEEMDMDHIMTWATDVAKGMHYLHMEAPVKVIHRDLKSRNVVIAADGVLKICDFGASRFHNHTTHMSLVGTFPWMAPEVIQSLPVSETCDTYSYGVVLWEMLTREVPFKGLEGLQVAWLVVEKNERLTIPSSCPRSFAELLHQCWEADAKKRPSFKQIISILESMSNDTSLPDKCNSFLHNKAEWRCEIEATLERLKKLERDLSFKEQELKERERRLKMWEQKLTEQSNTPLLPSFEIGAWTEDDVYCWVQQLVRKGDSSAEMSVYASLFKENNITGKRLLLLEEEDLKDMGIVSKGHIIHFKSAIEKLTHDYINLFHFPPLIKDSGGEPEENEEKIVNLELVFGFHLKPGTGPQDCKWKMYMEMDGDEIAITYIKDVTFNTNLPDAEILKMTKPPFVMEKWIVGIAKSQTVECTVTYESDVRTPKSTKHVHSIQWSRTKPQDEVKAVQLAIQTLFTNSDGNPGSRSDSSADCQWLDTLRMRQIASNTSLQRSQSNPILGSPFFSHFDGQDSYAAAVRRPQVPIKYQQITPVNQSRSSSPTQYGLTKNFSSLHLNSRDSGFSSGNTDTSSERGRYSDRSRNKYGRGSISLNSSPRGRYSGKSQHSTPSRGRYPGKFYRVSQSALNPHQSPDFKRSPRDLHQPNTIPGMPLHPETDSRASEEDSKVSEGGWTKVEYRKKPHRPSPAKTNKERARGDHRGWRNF

[6] = target: MAP/microtubule affinity-regulating kinase 3 (Homo sapiens) (UniProt P27448); conditions: at 10 µM
[7] = target: Serine/threonine-protein kinase pim-2 (Homo sapiens, UniProt Q9P1W9); assay: Selectivity interaction (KinomeScan (DiscoverX)) EUB0000595a PIM2; conditions: at 10 µM
Serine/threonine-protein kinase pim-2, sequence (Q9P1W9 whole entry, looked up, canonical isoform): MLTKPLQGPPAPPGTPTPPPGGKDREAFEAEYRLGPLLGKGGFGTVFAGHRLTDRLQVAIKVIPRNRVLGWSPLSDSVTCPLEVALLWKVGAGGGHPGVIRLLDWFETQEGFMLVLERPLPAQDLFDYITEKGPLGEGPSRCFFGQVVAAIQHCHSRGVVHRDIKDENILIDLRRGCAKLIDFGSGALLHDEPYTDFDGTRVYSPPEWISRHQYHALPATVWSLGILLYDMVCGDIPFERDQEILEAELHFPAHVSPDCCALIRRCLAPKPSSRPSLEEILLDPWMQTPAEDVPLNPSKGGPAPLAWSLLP

[8] = target: Phosphatidylinositol 4,5-bisphosphate 3-kinase catalytic subunit gamma isoform (Homo sapiens) (UniProt P48736); assay: Selectivity interaction (KinomeScan (DiscoverX)) EUB0001049a PIK3CG; conditions: at 1 µM
[9] = tested on: Epidermal growth factor receptor (Homo sapiens), P00533 [L858R,T790M]; assay: (§1) Selectivity interaction (KinomeScan (DiscoverX)) EUB0000655a EGFR; conditions: at 10 µM
Epidermal growth factor receptor (Homo sapiens), P00533 [L858R,T790M], sequence (P00533 whole entry T790M/L858R, looked up): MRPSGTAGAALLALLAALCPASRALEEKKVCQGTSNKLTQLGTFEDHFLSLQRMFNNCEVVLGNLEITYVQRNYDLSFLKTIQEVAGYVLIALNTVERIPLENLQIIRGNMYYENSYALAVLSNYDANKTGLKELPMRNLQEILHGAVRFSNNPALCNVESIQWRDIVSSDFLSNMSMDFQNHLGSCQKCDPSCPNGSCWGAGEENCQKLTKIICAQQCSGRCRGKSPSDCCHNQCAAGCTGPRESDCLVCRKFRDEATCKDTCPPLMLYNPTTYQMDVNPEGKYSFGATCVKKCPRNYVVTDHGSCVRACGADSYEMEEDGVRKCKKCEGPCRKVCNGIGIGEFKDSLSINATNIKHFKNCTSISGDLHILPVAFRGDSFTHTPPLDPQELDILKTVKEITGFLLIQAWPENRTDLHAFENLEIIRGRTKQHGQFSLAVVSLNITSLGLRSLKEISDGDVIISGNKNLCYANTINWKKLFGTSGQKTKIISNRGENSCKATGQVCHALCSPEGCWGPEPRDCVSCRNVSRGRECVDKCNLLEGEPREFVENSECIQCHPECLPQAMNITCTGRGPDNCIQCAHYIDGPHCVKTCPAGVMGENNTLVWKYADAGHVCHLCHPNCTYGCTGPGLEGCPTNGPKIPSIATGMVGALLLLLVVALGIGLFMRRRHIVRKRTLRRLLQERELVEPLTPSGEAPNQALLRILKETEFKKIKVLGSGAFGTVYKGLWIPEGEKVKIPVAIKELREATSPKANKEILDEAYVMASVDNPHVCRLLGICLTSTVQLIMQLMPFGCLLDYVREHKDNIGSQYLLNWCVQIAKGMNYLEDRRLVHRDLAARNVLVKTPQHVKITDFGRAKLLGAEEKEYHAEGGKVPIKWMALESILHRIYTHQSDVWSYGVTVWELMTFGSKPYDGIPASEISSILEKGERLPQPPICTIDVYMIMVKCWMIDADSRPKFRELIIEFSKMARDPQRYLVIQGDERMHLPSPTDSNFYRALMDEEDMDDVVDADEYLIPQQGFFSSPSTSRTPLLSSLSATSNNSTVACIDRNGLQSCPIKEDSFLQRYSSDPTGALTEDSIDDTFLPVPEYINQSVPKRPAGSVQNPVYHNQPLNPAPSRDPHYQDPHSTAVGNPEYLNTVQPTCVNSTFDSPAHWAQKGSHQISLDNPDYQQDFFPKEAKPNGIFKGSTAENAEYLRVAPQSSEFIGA

[10] = tested on: Epidermal growth factor receptor (Homo sapiens), P00533 [L861Q]; assay: as §1; conditions: at 10 µM
[11] = tested on: Epidermal growth factor receptor (Homo sapiens), P00533 [L858R]; assay: as §1; conditions: at 10 µM
[12] = tested on: Epidermal growth factor receptor (Homo sapiens), P00533 [G719S]; assay: as §1; conditions: at 10 µM
[13] = tested on: Epidermal growth factor receptor (Homo sapiens), P00533 [G719C]; assay: as §1; conditions: at 10 µM
Epidermal growth factor receptor (Homo sapiens), P00533 [G719C], sequence (P00533 whole entry G719C): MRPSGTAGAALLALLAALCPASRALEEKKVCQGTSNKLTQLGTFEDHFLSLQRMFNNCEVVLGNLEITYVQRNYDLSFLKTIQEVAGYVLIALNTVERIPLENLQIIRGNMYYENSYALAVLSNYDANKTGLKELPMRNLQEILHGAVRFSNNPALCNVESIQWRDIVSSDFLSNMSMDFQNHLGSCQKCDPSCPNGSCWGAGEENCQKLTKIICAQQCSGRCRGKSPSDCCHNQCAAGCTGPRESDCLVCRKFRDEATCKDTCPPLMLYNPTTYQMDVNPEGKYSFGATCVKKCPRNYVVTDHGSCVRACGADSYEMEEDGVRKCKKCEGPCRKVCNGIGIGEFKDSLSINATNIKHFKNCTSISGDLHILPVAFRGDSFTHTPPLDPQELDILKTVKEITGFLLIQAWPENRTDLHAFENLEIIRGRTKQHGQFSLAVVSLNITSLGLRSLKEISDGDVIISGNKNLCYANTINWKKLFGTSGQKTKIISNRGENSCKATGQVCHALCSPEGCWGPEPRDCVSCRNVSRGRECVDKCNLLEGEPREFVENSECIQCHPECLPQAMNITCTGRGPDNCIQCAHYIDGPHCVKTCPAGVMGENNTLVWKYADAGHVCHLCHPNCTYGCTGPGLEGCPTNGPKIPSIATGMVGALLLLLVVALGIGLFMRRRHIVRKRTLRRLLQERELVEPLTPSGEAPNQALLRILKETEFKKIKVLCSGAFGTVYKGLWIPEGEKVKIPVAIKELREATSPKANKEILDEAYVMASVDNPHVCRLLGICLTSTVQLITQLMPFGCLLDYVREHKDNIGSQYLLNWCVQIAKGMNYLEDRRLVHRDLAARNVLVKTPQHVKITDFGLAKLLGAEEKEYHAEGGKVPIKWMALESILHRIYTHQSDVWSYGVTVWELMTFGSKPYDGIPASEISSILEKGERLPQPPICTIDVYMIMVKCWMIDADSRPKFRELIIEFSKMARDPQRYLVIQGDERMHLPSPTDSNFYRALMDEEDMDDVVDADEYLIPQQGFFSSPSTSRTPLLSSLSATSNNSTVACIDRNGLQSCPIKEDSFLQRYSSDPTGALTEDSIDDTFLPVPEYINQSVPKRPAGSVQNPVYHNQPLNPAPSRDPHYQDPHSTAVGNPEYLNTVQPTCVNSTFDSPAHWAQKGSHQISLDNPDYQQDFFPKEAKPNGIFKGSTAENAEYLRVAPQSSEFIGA

[14] = tested on: Epidermal growth factor receptor (Homo sapiens), P00533 [T790M]; assay: as §1; conditions: at 10 µM
[15] = target: Epidermal growth factor receptor (Homo sapiens, UniProt P00533); assay: as §1; conditions: at 10 µM
[16] = tested on: Epidermal growth factor receptor (Homo sapiens), P00533 [UNDEFINED MUTATION]; assay: as §1; conditions: at 10 µM
[17] = target: T3, Ephrin type-A receptor 1 (Homo sapiens) (UniProt P21709); assay: Selectivity interaction (KinomeScan (DiscoverX)) EUB0000618a EPHA1; conditions: at 10 µM
T3 sequence (whole entry): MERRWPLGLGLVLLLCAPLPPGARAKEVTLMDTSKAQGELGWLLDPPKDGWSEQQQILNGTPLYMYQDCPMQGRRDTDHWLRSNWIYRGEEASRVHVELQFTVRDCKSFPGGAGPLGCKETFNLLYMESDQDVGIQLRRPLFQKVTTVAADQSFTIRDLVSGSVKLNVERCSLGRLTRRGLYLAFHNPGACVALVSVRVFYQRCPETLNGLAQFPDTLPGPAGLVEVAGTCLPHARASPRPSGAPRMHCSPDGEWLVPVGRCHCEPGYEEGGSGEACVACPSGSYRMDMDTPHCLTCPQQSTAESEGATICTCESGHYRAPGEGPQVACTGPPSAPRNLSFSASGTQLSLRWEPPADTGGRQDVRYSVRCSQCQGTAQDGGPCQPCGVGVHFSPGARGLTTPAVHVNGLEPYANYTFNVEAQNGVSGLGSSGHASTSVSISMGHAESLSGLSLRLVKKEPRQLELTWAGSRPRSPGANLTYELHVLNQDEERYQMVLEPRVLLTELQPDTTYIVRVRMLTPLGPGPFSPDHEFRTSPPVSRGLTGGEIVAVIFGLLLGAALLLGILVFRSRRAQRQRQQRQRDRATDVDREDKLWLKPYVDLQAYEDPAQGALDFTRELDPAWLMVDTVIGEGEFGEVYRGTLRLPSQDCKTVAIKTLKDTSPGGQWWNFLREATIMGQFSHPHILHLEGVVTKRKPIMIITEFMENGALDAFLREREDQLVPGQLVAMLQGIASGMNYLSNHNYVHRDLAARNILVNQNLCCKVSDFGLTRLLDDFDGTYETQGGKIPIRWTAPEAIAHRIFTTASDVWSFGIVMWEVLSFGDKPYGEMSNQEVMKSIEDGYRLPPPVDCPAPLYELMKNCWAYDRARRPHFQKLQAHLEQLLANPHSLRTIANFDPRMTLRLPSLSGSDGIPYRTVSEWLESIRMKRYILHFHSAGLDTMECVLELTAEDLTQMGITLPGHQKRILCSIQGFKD

% of control [1]: 11.7%
% of inhibition [2]: -62.3%
Compound: Cn1cc(-n2cnc3c(NCc4nc5cc(Cl)c(Cl)cc5[nH]4)nc(N4CCOCC4)nc32)cn1

Compound: O=C(NOC[C@H](O)CO)c1ccc(F)c(F)c1Nc1ccc(I)cc1F
% of control [3]: 100%

IC50 (Aurora kinase B): 10.2 µM
Compound: CN1Cc2nccc(-c3cn(C)nc3-c3ccc(F)cc3)c2C1=O

Compound: CNC(=O)Nc1ccc(-c2nc(N3CC4CCC(C3)O4)c3cnn(C4CCC5(CC4)OCCO5)c3n2)cc1
% of control [4]: 72%

% of control [5]: 100%
% of control [6]: 100%
Compound: CCN(CC)CCCCNc1ncc2cc(-c3cc(OC)cc(OC)c3)c(NC(=O)NC(C)(C)C)nc2n1

Compound: COCC(=O)NC/C=C/c1ccc2ncnc(Nc3ccc(Oc4ccc(C)nc4)c(C)c3)c2c1 [CP-724714]
% of control [7]: 100%

Compound: COc1cc(Nc2nc(C)cc(-c3cnn4nc(OC)ccc34)n2)cc(C(F)(F)F)c1
% of control [8]: 93%

Compound: CN(C)CCOc1ccc(-c2nc(-c3ccncc3)c(-c3ccc4c(c3)CC/C4=N\O)[nH]2)cc1
% of control [9]: 93%
% of control [10]: 34%
% of control [11]: 54%
% of control [12]: 70%
% of control [13]: 59%
% of control [14]: 34%
% of control [15]: 95%
% of control [16]: 100%

Compound: O[C@H]1CC[C@H](Nc2ncc3nc(Nc4c(F)cc(F)cc4F)n([C@H]4CCOC4)c3n2)CC1
% of control [17]: 100%
